According to publication PMC12610721, “The Action of Cannabidiol on Doxycycline Cytotoxicity in Human Cells—In Vitro Study” (Molecules, 2025):
Converted amounts (≈) assume the structure as drawn. Where two headings read alike, the source gives them in different places.

Legend:
[1] = tested on: normal HK-2 cells; design: method as in PMID 34644207; settings: HK-2, 20 µg/mL, without triggering apoptosis; cited from earlier work
[2] = tested on: SH-SY5Y cells; design: method as in PMID 16341128; settings: 24 h, cited from earlier work
[3] = tested on: human pluripotent stem cell-derived hepatocytes; settings: cited from earlier work
[4] = tested on: renal cancer cells; design: method as in PMID 34644207; settings: cited from earlier work
[5] = tested on: SH-SY5Y cells; design: method as in earlier work; settings: 48 h exposure, cited from earlier work
[6] = cited from earlier work
[7] = tested on: HepG2 cells; design: method as in PMID 32867402; settings: cited from earlier work
[8] = tested on: HEK-293 cells; assay: series of five cytotoxicity assays (MTT, NRU, TPC, LDH, BrdU), summary; format: cell-based; settings: Homo sapiens, HEK293, 72 h, read-out: IC50 values, range depending on the cellular parameter assessed
[9] = tested on: HepG2 cells; assay: as above; format: cell-based; settings: Homo sapiens, HepG2, 72 h, across MTT, read-out: IC50 values, range depending on the cellular parameter evaluated
Protocol: The cultured cells, for 72 h, were exposed to doxycycline (at concentrations ranging from 1.56 μg/mL to 200 μg/mL), both alone and in combination with CBD: 1.56 μg/mL (DOX + C1) and 3.125 μg/mL (DOX + C2) at two non-toxic doses (Supplementary Materials). A series of cytotoxicity assays included assessments of mitochondrial activity, lysosomal activity, cell membrane integrity, DNA synthesis, and cell proliferation.
The metabolic activity of viable cells was assessed by measuring dehydrogenase activity [82]. After exposing the cell cultures to the test compounds, 10 µL of MTT solution (5 mg/mL in PBS) was added to each well of a 96-well plate. […] The plate was shaken for 15 min at room temperature and transferred to a Synergy 2 Multi-Mode Microplate Reader (BioTek® Instruments Inc., Winooski, VT, USA) to measure absorbance at 570 nm, using a blank as reference. Cytotoxicity was expressed as a percentage relative to the negative control [83].
This method is based on staining viable cells with neutral red, a dye that readily diffuses through the plasma membrane and accumulates in lysosomes [84]. […] After 10 min of shaking, the absorbance of the extracted dye was measured at 540 nm using a Synergy 2 Multi-Mode Microplate Reader (BioTek® Instruments Inc., Winooski, VT, USA), with a blank as reference. Cytotoxicity was expressed as a percentage relative to the negative control [83]. […]

[10] = tested on: SH-SY5Y cells; assay: oxidative stress, ROS production (DCFH assay); format: cell-based, human; settings: DCFH-DA, 72 h
Protocol: (§1) Intracellular ROS levels were evaluated using the redox-sensitive fluorescent dye DCFH-DA [87]. Briefly, the cells were incubated with 5 μM DCFH-DA for 1 h at 37 °C in the dark. Thereafter, the tested compounds were added at the concentrations used in the study. Cells treated with 500 μM hydrogen peroxide (H2O2) served as a positive control. After 72 h of incubation, the fluorescence of 2′,7′-dichlorofluorescein (DCF) was measured. Fluorescence was recorded at 485/530 nm using a fluorescence microplate reader (BioTek® Instruments Inc., Winooski, VT, USA).

[11] = tested on: HepG2 cells; assay: oxidative stress, ROS production (DCFH assay); format: cell-based, human; settings: HepG2, DCFH-DA, 72 h
Protocol: as §1

[12] = tested on: HEK-293 cells; assay: oxidative stress, ROS production (DCFH assay); format: cell-based, human
Protocol: as §1

[13] = tested on: HEK-293 cells; assay: mitochondrial activity (MTT assay)
Protocol: (§2) This innovative study evaluated the effects of cannabidiol (Cannabis sativa L.) on doxycycline-induced toxicity using three cell cultures: neural—SH-SY5Y, liver—HepG2, and kidney—HEK-293. […] A series of cytotoxicity assays included assessments of mitochondrial activity, lysosomal activity, cell membrane integrity, DNA synthesis, and cell proliferation. Based on the obtained results, IC50 values for doxycycline, both in monotherapy and in combination with CBD, were calculated, along with evaluations of ROS, death of cells, and morphology. The interaction between the drug and CBD was further analyzed by the combination index (CI).
The metabolic activity of viable cells was assessed by measuring dehydrogenase activity. After exposing the cell cultures to the test compounds, 10 µL of MTT solution (5 mg/mL in PBS) was added to each well of a 96-well plate. After 3 h of incubation, the MTT solution was removed, and the intracellular formazan was dissolved in 100 µL of DMSO. The plate was shaken for 15 min at room temperature and transferred to a Synergy 2 Multi-Mode Microplate Reader (BioTek® Instruments Inc., Winooski, VT, USA) to measure absorbance at 570 nm, using a blank as reference. Cytotoxicity was expressed as a percentage relative to the negative control.
(§3) To determine the types of interaction that occur when cells are exposed to combinations of DOX and CBD, the method established by Chou and Talalay was used in this study. The dose–effect relationships of the individual and combined test compounds were modeled biometrically using the Median-Effect Equation based on the Mass Action Law.fa/fu = (D/Dm)^m
(§4) In this isobolographic analysis, the combination index (CI) is a quantitative parameter used to evaluate the type and strength of interactions between multiple compounds. For all combinations, CI values were calculated across a range of affected fractions (Fa) from 0.05 to 0.95 (corresponding to 5–95% toxicity). CI values of 0.9–1.1, <0.9, and >1.1 indicate additive, synergistic, and antagonistic effects, respectively.
(§5) The study was conducted in three independent experiments (n = 3). […] Cytotoxicity data were analyzed using one-way analysis of variance (ANOVA), followed by Dunnett’s post hoc test to assess significance relative to the negative control. The half-maximal inhibitory concentration (IC50), representing the drug or drug–CBD mixture concentration required to inhibit cell viability by 50%, was calculated using GraphPad Prism 5.0. Statistical comparisons between IC50 values were performed using ANOVA followed by Tukey’s post hoc test. Differences were considered statistically significant at p ≤ 0.05.

[14] = tested on: SH-SY5Y cells; settings: 72 h, Hoechst 33342/propidium iodide
Protocol: The type and extent of cell death in the control and treated cultures were evaluated using fluorochrome staining with Hoechst 33342 and propidium iodide to assess apoptosis and necrosis [88]. Dead cells were analyzed morphologically using a fluorescence microscope (Axiovert 200 M, Zeiss, Oberkochen, Germany). Cells with pink, fluorescent nuclei were considered necrotic, whereas cells with blue, fluorescent nuclei (fragmented and/or condensed chromatin) were classified as apoptotic.

[15] = tested on: SH-SY5Y cells; assay: lysosomal activity (NRU assay); settings: 72 h
Protocol: as §2
(§6) This method is based on staining viable cells with neutral red, a dye that readily diffuses through the plasma membrane and accumulates in lysosomes. After incubation with the test compounds, the medium containing the substances was removed, and the cells were washed with PBS. Subsequently, 100 µL/well of neutral red (NR) solution (50 µg/mL) was added and incubated for 3 h. After incubation, the cells were washed again with PBS. The dye retained in viable cells was extracted using a solution of acetic acid, ethanol, and water (1:50:49, v/v/v). After 10 min of shaking, the absorbance of the extracted dye was measured at 540 nm using a Synergy 2 Multi-Mode Microplate Reader (BioTek® Instruments Inc., Winooski, VT, USA), with a blank as reference. Cytotoxicity was expressed as a percentage relative to the negative control.
as §3, §4, §5

[16] = tested on: HepG2 cells; assay: lysosomal activity (NRU assay)
Protocol: as §2, §6, §3, §4, §5

[17] = tested on: HEK-293 cells; assay: lysosomal activity (NRU assay)
Protocol: as §2, §6, §3, §4, §5

In the case of `C[C@H]1c2cccc(O)c2C(=O)C2=C(O)[C@]3(O)C(=O)C(C(N)=O)=C(O)[C@@H](N(C)C)[C@@H]3[C@@H](O)[C@@H]21` [DOX, doxycycline hyclate], the “effect on DNA synthesis” value [1] is listed as “inhibited DNA synthesis”, the “effect on cell density” value ([2]; 1 µg/mL) is listed as “minimal” and the “effect on cell density” value ([2]; higher concentrations up to 4 µg/mL) is listed as “decreased SH-SY5Y cell density”. The “effect on mitochondrial membrane” value [3] was “depolarized the mitochondrial membrane”, the “concentration that significantly inhibited protein synthesis and mitochondrial complex activity” value ([4]; cells of neoplastic origin) was 5 µg/mL and the “concentration that induced apoptosis” value ([4]; renal cancer cells) was 10 µg/mL. The IC50 ([5]; converted value in brackets) was 1.9 µg/mL, the IC50 ([5]; read-out: IC50) was 3.7 ± 0.1 µM and the “DOX level in breast muscles” value ([6]; breast muscles) was 32.4 ± 3.6 µg/kg. For the same compound, the “residues of DOX detected in eggs” value ([6]; eggs) was “up to 1400 μg/kg”, the “DOX concentration accumulated in the kidneys” value ([6]; kidneys) was 44.7 ± 4.3 µg/kg and the “DOX concentration measured in the liver” value ([6]; liver) was 21.6 ± 3.2 µg/kg. For the same compound, the “residues of DOX detected in milk” value ([6]; milk) was 5 to 490 µg/kg, the “DOX level in thigh muscles” value ([6]; thigh muscles) was 22.7 ± 2.9 µg/kg and the “concentration causing about a 50% reduction in cell viability” value ([7]; HepG2, converted value in brackets) was 10.3 to 13.0 µg/mL. The IC50 ([7]; HepG2, read-out: concentration causing about a 50% reduction in cell viability) was 20 to 25 µM, the IC50 [8] was 8.9 to 30.4 µg/mL (≈ 20 to 68.4 µM) and the IC50 [9] was 13.4 to 200 µg/mL (≈ 30.2 to 450 µM). The “doxycycline concentration from which free radical (ROS) production increased” value [10] was 1.56 µg/mL, the “doxycycline concentration at which free radical (ROS) production increased significantly” value [11] was 12.5 µg/mL and the “doxycycline concentration from which free radical (ROS) production increased” value [12] was “lowest tested concentration”. For the same compound, the “doxycycline concentration that inhibited mitochondrial activity” value ([13]; HEK-293, MTT, 72 h) was 6.25 µg/mL, the IC50 ([13]; Homo sapiens, HEK293, 72 h) was 17.4 ± 1 µg/mL and the “proportion of apoptotic and necrotic cells” value [14] was “increased the proportion of apoptotic and necrotic cells”. The “proportion of apoptotic and necrotic cells” value ([14]; listed as doxycycline) was “marked increase in apoptotic and necrotic cell populations”, the IC50 ([15]; Homo sapiens) was > 200 µg/mL and the “doxycycline concentration at which lysosomal activity was inhibited” value ([15]; NRU) was 50 µg/mL. For the same compound, the “doxycycline concentration that inhibited lysosomal activity” value ([16]; HepG2, NRU, 72 h) was 25 µg/mL, the IC50 ([16]; Homo sapiens, HepG2, 72 h) was 13.4 ± 0.9 µg/mL and the “doxycycline concentration that inhibited lysosomal activity” value ([17]; HEK-293, NRU, 72 h) was 6.25 µg/mL. For the same compound, the IC50 ([17]; Homo sapiens, HEK293, 72 h) was 12.7 ± 1 µg/mL.
